Activity calls are given as the source filed them. The calls are words filed in the database; no cut-off is given here.
Columns and labels:
Rattus norvegicus [1] = assay: Reduction in triglyceride level in Zucker fa/fa rat plasma at 75 mg/kg, po qd for 5 days relative to vehicle-treated control control; type: functional, organism-based; design: dose 75 mg/kg
Rattus norvegicus [2] = assay: Reduction in insulin level in Zucker fa/fa rat plasma at 75 mg/kg, po qd for 5 days relative to vehicle-treated control control; type: functional, organism-based; design: dose 75 mg/kg
Rattus norvegicus [3] = assay: Reduction in free fatty acid level in Zucker fa/fa rat plasma at 75 mg/kg, po qd for 5 days relative to vehicle-treated control control; type: functional, organism-based; design: dose 75 mg/kg
Rattus norvegicus [4] = assay: Antihypertensive activity in dosed SHR NCrl rat assessed as decrease in diastolic blood pressure at 10 mg/kg, po administered daily for 12 days relative to vehicle-treated control control; type: functional, organism-based; design: dose 10 mg/kg; conditions: Artery
Rattus norvegicus [5] = assay: Antihypertensive activity in dosed SHR NCrl rat assessed as decrease in diastolic blood pressure at 10 mg/kg, po administered daily for 12 days relative to baseline control; type: functional, organism-based; design: dose 10 mg/kg; conditions: Artery
Rattus norvegicus [6] = assay: Antihypertensive activity in dosed SHR NCrl rat assessed as decrease in systolic blood pressure at 10 mg/kg, po administered daily for 12 days relative to vehicle-treated control control; type: functional, organism-based; design: dose 10 mg/kg; conditions: Artery
Rattus norvegicus [7] = assay: Antihypertensive activity in dosed SHR NCrl rat assessed as decrease in systolic blood pressure at 10 mg/kg, po administered daily for 12 days relative to baseline control; type: functional, organism-based; design: dose 10 mg/kg; conditions: Artery
[8] = Oral bioavailability in Zucker fa/fa rat at 30 mg/kg; type: ADME, organism-based; conditions: in vivo
[9] = AUC in Zucker fa/fa rat at 30 mg/kg, po; type: ADME, organism-based; design: dose 30 mg/kg, route oral; conditions: plasma
[10] = Clearance in Zucker fa/fa rat at 5.2 mg/kg, iv; type: ADME, organism-based; design: dose 5.2 mg/kg, route intravenous; conditions: in vivo
[11] = Volume of distribution at steady state in Zucker fa/fa rat 5.2 mg/kg, iv; type: ADME, organism-based; design: dose 5.2 mg/kg, route intravenous; conditions: in vivo, read-out: Vdss
[12] = Half life in Zucker fa/fa rat at 5.2 mg/kg, iv; type: ADME, organism-based; design: dose 5.2 mg/kg, route intravenous; conditions: in vivo
[13] = AUC in Zucker fa/fa rat at 5.2 mg/kg, iv; type: ADME, organism-based; design: dose 5.2 mg/kg, route intravenous; conditions: plasma
[14] = target: T1, Peroxisome proliferator-activated receptor gamma (Mus musculus) (UniProt P37238); assay: Partial agonist activity at mouse PPARgamma expressed in CV-1 cells by reporter gene assay relative to rosiglitazone; type: cell-based
T1 sequence (whole entry): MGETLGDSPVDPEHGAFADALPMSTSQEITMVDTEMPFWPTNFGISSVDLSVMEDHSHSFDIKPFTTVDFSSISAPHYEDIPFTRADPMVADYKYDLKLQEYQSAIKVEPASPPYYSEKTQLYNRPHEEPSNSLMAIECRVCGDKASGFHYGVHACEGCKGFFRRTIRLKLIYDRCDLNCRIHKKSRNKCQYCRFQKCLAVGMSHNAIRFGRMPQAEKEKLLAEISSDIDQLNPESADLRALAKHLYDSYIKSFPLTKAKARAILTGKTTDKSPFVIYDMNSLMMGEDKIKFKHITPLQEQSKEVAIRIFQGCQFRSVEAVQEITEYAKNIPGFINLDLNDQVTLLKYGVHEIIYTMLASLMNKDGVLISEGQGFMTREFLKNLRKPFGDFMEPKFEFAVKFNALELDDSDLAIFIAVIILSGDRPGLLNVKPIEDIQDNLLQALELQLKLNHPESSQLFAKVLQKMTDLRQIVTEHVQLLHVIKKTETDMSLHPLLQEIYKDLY

[15] = target: T2, Peroxisome proliferator-activated receptor gamma (Mus musculus, UniProt P37238); assay: Partial agonist activity at mouse PPARgamma expressed in CV-1 cells by reporter gene assay; type: cell-based
T2 sequence (P37238 whole entry): T1 sequence (whole entry)

[16] = target: T3, Peroxisome proliferator-activated receptor gamma (Homo sapiens) (UniProt P37231); assay: Partial agonist activity at human PPARgamma expressed in CV-1 cells by reporter gene assay relative to rosiglitazone; type: cell-based
T3 sequence (whole entry): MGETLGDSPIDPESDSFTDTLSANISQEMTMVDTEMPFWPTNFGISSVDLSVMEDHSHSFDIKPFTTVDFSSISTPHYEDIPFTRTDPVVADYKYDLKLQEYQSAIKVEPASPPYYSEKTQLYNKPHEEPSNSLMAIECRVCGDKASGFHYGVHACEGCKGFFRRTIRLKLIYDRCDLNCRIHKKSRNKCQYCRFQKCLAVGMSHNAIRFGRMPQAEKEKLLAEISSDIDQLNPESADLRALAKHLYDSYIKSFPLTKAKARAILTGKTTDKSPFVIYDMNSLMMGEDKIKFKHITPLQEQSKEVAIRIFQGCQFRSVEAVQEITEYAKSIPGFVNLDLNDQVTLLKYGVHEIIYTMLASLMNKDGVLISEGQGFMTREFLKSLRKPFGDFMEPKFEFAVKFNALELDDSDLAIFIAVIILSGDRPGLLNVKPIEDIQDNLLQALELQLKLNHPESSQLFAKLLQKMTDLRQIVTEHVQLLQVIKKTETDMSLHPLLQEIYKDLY

[17] = target: T4, Peroxisome proliferator-activated receptor gamma (Homo sapiens, UniProt P37231); assay: Partial agonist activity at human PPARgamma expressed in CV-1 cells by reporter gene assay; type: cell-based
T4 sequence (P37231 whole entry): T3 sequence (whole entry)

[18] = target: T5, Peroxisome proliferator-activated receptor delta (Mus musculus, UniProt P35396); assay: Agonist activity at mouse PPARdelta expressed in CV-1 cells by reporter gene assay; type: cell-based
T5 sequence (P35396 whole entry): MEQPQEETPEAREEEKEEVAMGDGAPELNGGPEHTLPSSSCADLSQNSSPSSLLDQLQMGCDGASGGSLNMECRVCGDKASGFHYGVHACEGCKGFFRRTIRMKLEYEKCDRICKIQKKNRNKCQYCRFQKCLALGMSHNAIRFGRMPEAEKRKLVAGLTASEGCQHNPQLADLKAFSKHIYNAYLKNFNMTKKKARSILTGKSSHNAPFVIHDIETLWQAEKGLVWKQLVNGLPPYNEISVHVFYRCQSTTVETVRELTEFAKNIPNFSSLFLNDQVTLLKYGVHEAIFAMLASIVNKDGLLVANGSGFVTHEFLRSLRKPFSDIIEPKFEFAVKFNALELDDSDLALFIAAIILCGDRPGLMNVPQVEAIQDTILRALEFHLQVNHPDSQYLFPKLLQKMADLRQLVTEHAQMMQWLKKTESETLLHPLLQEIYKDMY

[19] = target: T6, Peroxisome proliferator-activated receptor alpha (Mus musculus, UniProt P23204); assay: Agonist activity at mouse PPARalpha expressed in CV-1 cells by reporter gene assay; type: cell-based
T6 sequence (P23204 whole entry): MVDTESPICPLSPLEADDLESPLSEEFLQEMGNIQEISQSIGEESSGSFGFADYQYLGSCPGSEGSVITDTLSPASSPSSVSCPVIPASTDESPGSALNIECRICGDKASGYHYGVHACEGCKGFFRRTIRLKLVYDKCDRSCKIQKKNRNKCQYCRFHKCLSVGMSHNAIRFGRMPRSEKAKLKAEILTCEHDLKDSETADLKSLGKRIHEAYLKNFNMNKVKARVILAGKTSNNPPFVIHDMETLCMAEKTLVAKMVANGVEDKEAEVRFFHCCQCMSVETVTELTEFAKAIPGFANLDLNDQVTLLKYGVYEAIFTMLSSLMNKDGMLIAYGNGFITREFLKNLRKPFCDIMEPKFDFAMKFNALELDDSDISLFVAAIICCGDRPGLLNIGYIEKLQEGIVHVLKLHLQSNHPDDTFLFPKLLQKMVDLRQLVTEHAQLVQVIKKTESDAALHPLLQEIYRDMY

[20] = target: T7, Type-1 angiotensin II receptor (Homo sapiens, UniProt P30556); assay: Antagonist activity at human AT1 receptor expressed in CHO cells measured after overnight incubation by luciferase reporter gene assay; type: cell-based
T7 sequence (P30556 whole entry): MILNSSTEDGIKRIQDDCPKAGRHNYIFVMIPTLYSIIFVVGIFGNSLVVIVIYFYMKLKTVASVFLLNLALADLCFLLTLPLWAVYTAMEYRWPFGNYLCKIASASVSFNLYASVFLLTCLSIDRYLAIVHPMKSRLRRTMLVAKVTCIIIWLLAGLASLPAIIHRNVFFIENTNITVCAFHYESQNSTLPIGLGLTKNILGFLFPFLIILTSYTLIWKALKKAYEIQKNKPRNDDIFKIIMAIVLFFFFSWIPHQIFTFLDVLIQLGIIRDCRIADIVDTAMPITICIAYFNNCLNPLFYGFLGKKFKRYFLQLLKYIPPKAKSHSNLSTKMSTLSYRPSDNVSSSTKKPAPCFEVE

[21] = target: T2, Peroxisome proliferator-activated receptor gamma; assay: Agonist activity at mouse PPARgamma expressed in CV-1 cells by reporter gene assay; type: cell-based
[22] = target: T4, Peroxisome proliferator-activated receptor gamma; assay: Agonist activity at human PPARgamma expressed in CV-1 cells by reporter gene assay; type: cell-based
[23] = target: T1, Peroxisome proliferator-activated receptor gamma (Mus musculus); assay: Agonist activity at mouse PPARgamma expressed in CV-1 cells by reporter gene assay relative to rosiglitazone; type: cell-based
Rattus norvegicus [24] = assay: Toxicity in Zucker fa/fa rat assessed as increase in body weight gain at 75 mg/kg, po qd for 5 days relative to vehicle-treated control control; type: organism-based; design: dose 75 mg/kg, route oral; conditions: in vivo, 120 h
Rattus norvegicus [25] = assay: Reduction in triglyceride level in Zucker fa/fa rat plasma at 1 mg/kg, po qd for 5 days relative to vehicle-treated control control; type: functional, organism-based; design: dose 1 mg/kg
Rattus norvegicus [26] = assay: Toxicity in Zucker fa/fa rat assessed as increase in body weight gain at 1 mg/kg, po qd for 5 days relative to vehicle-treated control control; type: organism-based; design: dose 1 mg/kg, route oral; conditions: in vivo, 120 h
Rattus norvegicus [27] = assay: Reduction in insulin level in Zucker fa/fa rat plasma at 1 mg/kg, po qd for 5 days relative to vehicle-treated control control; type: functional, organism-based; design: dose 1 mg/kg
Rattus norvegicus [28] = assay: Reduction in free fatty acid level in Zucker fa/fa rat plasma at 1 mg/kg, po qd for 5 days relative to vehicle-treated control control; type: functional, organism-based; design: dose 1 mg/kg

Compound | EC50 [18] [nM] | EC50 [19] [nM] | IC50 [20] [nM] | EC50 [21] [nM] | EC50 [22] [nM] | max activation [23] [%] | other results
CCCCn1c(-c2ccc3nn(CCC)c(Cc4ccc(-c5ccccc5-c5nn[nH]n5)cc4)c3c2)nc2ccccc21 | > 10000 | > 10000 | 6 | – | – | – | Activity (Rattus norvegicus [1]): Active; Activity (Rattus norvegicus [2]): Active; Activity (Rattus norvegicus [3]): Active; Activity (Rattus norvegicus [4]): Active; Activity (Rattus norvegicus [5]): Active; Activity (Rattus norvegicus [6]): Active; Activity (Rattus norvegicus [7]): Active; bioavailability [8]: 78%; AUC [9]: 36300 ng·h/mL; clearance [10]: 11 mL/min/kg; Vd [11]: 7.8 L/kg; half-life [12]: 14 h; AUC [13]: 8010 ng·h/mL; max activation [14]: 18%; EC50 [15]: 270 nM; max activation [16]: 40%; EC50 [17]: 250 nM
CCCc1nn2ccc(-c3nc4ccccc4n3CCC)cc2c1Cc1ccc(-c2ccccc2-c2nnn[nH]2)cc1 | > 10000 | > 10000 | 23 | 130 | 80 | – | –
CCCc1nn2ccc(C(=O)NC(CC)c3ccccc3)cc2c1Cc1ccc(-c2ccccc2-c2nn[nH]n2)cc1 (stereo unspecified) | – | – | – | – | – | 9 | –
CCCc1c(Cc2ccc(-c3ccccc3C(=O)O)cc2)c2cc(C(=O)NC(CC)c3ccccc3)ccc2n1OC (stereo unspecified) | > 10000 | > 10000 | > 10000 | 200 | 90 | 17 | –
CCCc1nc2ccc(C(=O)NC(CC)c3ccccc3)cc2n1Cc1ccc(-c2ccccc2C(=O)O)cc1 (stereo unspecified) | – | – | 288 | – | – | – | –
CN(CCOc1ccc(C[C@H](Nc2ccccc2C(=O)c2ccccc2)C(=O)O)cc1)c1ccccn1 | – | – | – | – | – | – | Activity (Rattus norvegicus [24]): Non-toxic; Activity (Rattus norvegicus [25]): Active; Activity (Rattus norvegicus [26]): Toxic; Activity (Rattus norvegicus [27]): Active; Activity (Rattus norvegicus [28]): Active
CCCc1nc2cc(C(=O)NC(CC)c3ccccc3)ccc2n1Cc1ccc(-c2ccccc2C(=O)O)cc1 (stereo unspecified) | – | – | 128 | – | 2650 | – | –
CCCCn1c(-c2ccc3nn(CCC)c(Cc4ccc(-c5ccccc5C(=O)O)cc4)c3c2)nc2ccccc21 | > 10000 | > 10000 | 60 | 1390 | 640 | 37 | –
